Results taken from patent publication US11571454B2, “Anticancer peptides that synergistically enhance chemotherapeutic potency” (The Penn State Research Foundation, priority 2017, dated 2023).

Test system: NCI/ADR-RES (drug-resistant ovarian carcinoma) cells
Assay: MTT cytotoxicity assay, NCI/ADR-RES
Type: cell-based, human
Protocol: All cells were cultured using standard culture conditions at 37° C., 5% CO2, and 95% humidity. A549 (CCL-185), OVCAR-3 (HTB-161), T24 (HTB-4), and NCI/ADR-RES were cultured in RPMI-1640 supplemented with 10% v/v fetal bovine serum (FBS), 2 mM L-glutamine (L-Gln), 10,000 units penicillin/mL, 10 mg/mL streptomycin, and 25 μg/mL amphotericin B. HUVEC (PCS-100-010) cells were cultured in Vascular Cell Basal Media (PCS-100-030) supplemented with an Endothelial Cell Growth Kit-VEGF (PCS-100-041) and 10 μg/mL gentamycin in culture flasks coated with 0.1% gelatin by incubating at 37° C. for 15 min. NL20 (CRL-2503) cells were cultured in Ham's F12 supplemented with 1.5 g/L sodium bicarbonate, 2.7 g/L glucose, 2.0 mM L-glutamine, 0.1 mM nonessential amino acids, 0.005 mg/ml insulin, 10 ng/ml epidermal growth factor, 0.001 mg/ml transferrin, 500 ng/ml hydrocortisone and 4% fetal bovine serum, as advised by American Type Culture Collection (ATCC).
Viability was calculated by comparing to an untreated control.
All experiments were performed with n>6.
Cell viability experiments were completed n>6 in two independent experiments and analyzed using GraphPad Prism 8 to fit curves and calculate IC50 values using inhibitor vs. normalized response non-linear regression model. IC50 values are reported as mean values±standard deviation. […] Pore size frequency distribution was completed by ImageJ FIJI on 4 independent cells and n=30 pores from SEM images. UV-Vis OD600 and CD spectra are means of 5 and 3 replicates, respectively and reported as mean±standard deviation. Individual UV-Vis and CD spectra, as well as fluorescent confocal and TEM micrographs, shown are representative plots from three individual experiments. CD data is with a variance in ellipticity of 0.2 millidegrees at each wavelength. Relative fluorescence data calculated from fluorescent confocal images represents the average of 10 independent measurements±standard deviation. For spheroid volume analysis, a Kruskal-Wallis test and Dunn's multiple comparisons test was performed using GraphPad Prism 8.

With H-KRWHWWRRHWVVW-NH2 [MAD1] the IC50 (48 hours treatment, MTT, read-out: Cancerous (IC50, μM) NCl/ADR-RES) was 85.6 µM, the “Therapeutic Index NCl/ADR-RES” value (IC50-HUVEC/IC50-NCI/ADR-RES) was 1.2 and the “cytotoxic activity against NCI/ADR-RES” value (result in words) was “moderate activity”.
